{"source": "patent US20220348572A1", "about": "“BRIDGED HETEROCYCLYL-SUBSTITUTED PYRIMIDINE COMPOUND, PREPARATION METHOD THEREFOR, AND PHARMACEUTICAL USE THEREOF” (The National Institutes of Pharmaceutical R&D Co., Ltd., priority 2019, published 2022)", "key": {"[1]": {"assay": "Pharmacokinetic study in rats after oral administration", "type": "in vivo, SD rats", "settings": "for pharmacokinetic parameters (in words): oral administration in SD rats; for AUC(0-t) / Cmax: rat, male SD rats, oral 5 mg/kg, plasma", "method": "Experimental Example 5: Pharmacokinetic Studies of the Compounds of Example 1, Example 1-a, Example 1-b and Example 3 in Rats In order to investigate the blood concentration and pharmacokinetic parameters of the compounds of the present invention after oral administration, the corresponding LC/MS/MS assay and plasma treatment methods were developed for the compounds of the Experimental Examples. […] Male SD rats were orally administered at a dose of 5 mg/kg. Blood was orbitally collected and anticoagulated with sodium heparin. The plasma was deproteinated with acetonitrile. The samples were analyzed by LC/MS/MS method. Wherein, AUC<1000 μg/L*h is shown as C, AUC between 1000-2000 μg/L*h is shown as B, AUC>2000 μg/L*h is shown as A; Cmax<600 μg/L is shown as C, Cmax between 600-900 μg/L is shown as B, and Cmax>900 μg/L is shown as A."}, "[2]": {"target": "T1, JAK1 kinase (Homo sapiens, UniProt P23458)", "T1 construct": "purchased Invitrogen PV4744", "T1 sequence (P23458 866-1154 limits assumed)": "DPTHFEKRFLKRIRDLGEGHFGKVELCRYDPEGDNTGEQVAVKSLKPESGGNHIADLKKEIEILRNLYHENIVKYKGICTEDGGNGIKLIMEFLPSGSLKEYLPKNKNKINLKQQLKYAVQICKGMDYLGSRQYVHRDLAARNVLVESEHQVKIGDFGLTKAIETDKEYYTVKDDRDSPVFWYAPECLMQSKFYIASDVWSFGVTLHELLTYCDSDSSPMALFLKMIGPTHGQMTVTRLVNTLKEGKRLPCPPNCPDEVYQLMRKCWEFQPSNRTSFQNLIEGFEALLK", "assay": "In vitro inhibitory activity on JAK1 kinase (ADP-Glo Kinase Assay)", "type": "biochemical", "settings": "JAK1 kinase 4 nM, 1 mM ATP", "in_short": "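JAK1 (4 nM final) preincubated with compound 15 min at 25° C., then substrate mix (1 mM ATP, IRS1 0.05 mg/ml) added for 60 min at 25° C. ADP-Glo luminescence read-out; top concentration 10 μM, 3-fold, 10 points, duplicates; IC50 reported in ranged classes.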"}, "[3]": {"target": "T2, TYK2 kinase (Homo sapiens, UniProt P29597)", "T2 sequence (P29597 897-1187 limits assumed)": "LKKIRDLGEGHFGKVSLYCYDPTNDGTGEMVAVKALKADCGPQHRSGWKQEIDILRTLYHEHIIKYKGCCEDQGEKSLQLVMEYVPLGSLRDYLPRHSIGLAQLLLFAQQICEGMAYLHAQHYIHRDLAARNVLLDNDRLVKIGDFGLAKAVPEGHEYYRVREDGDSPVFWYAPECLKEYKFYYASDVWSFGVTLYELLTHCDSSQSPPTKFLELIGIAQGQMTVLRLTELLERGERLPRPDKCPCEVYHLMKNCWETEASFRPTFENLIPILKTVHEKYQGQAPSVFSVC", "assay": "In vitro inhibitory activity on Tyk2 kinase (ADP-Glo Kinase Assay)", "type": "biochemical", "settings": "TYK2 kinase 4 nM, 1 mM ATP", "method": "Test Example 2: Determination of In Vitro Inhibitory Activity of the Compounds of the Present Invention on Tyk2 Kinase Experimental materials: TYK2 (Invitrogen, PV4790), ATP (Promega, V915B), ADP-Glo Kinase Assay (Promega, V9101), IRS1 (Signalchem, 140-58-1000). Sample preparation: The compounds of the present invention and the control product were dissolved in DMSO solvent respectively to formulate into 10 mM initial liquid. The maximum concentration of the compound was 10 μM, 3-fold dilution, 10 concentration gradients, and duplicate wells for each concentration gradient. Experimental process: 0.1 μL of the compound to be tested was transferred into a 384 reaction plate (PE, 6007290) via Echo and centrifuged at 1000 rpm/min for 1 min. 5 μL TYK2 kinase (final concentration of 4 nM) was transferred into the 384 reaction plate, which was then centrifuged at 1000 rpm/min for 1 min, and incubated at 25° C. for 15 min. 5 μL substrate mixture (1 mM ATP, IRS1 0.05 mg/ml, kinase buffer solution) was transferred into the 384 reaction plate, which was then centrifuged at 1000 rpm/min for 1 min, and incubated at 25° C. for 60 min. 10 μL ADP-Glo was transferred into the 384 reaction plate, which was then centrifuged at 1000 rpm/min for 1 min, and incubated at 25° C. for 40 min. 20 μL test solution was transferred into the 384 reaction plate, which was centrifuged at 1000 rpm/min for 1 min and incubated at 25° C. for 40 min. RLU (Relative luminescence unit) signal was read by using an Envision multifunctional plate reader. The signal intensity was used to characterize the degree of the kinase activity. […] IC50 value of 0-100 nM is shown as A, IC50 value of 100-300 nM is shown as B, IC50 value of 300-1000 nM is shown as C, and IC50 value which is greater than 1000 nM is shown as D. NT means not tested."}}, "data": [{"smiles": "Cn1cc(Nc2nccc(C3=CC4CCC(C3)N4C(=O)[C@@H]3CC3(F)F)n2)cn1", "note": "(stereo partly drawn) [Compound 1, ((S)-2,2-difluorocyclopropyl)(3-(2-((1-methyl-1H-pyrazol-4-yl)amino)pyrimidin-4-yl)-8-azabicyclo[3.2.1]oct-2-en-8-yl)methanone]", "values": [{"measurement": "pharmacokinetic parameters (in words)", "setting": "[1]", "value": "good pharmacokinetic parameters"}, {"measurement": "AUC(0-t)", "setting": "[1]", "value": "> 2000", "unit": "ng·h/mL"}, {"measurement": "Cmax", "setting": "[1]", "value": "> 900", "unit": "ng/mL"}, {"measurement": "IC50", "setting": "[2]", "value": "< 100", "unit": "nM"}, {"measurement": "IC50", "setting": "[3]", "value": "< 100", "unit": "nM"}]}, {"smiles": "Cn1cc(Nc2nccc(C3=CC4CCC(C3)N4C(=O)NCC(F)(F)F)n2)cn1", "note": "(stereo not drawn) [Compound 3, 3-(2-((1-methyl-1H-pyrazol-4-yl)amino)pyrimidin-4-yl)-N-(2,2,2-trifluoroethyl)-8-azabicyclo[3.2.1]oct-2-ene-8-carboxamide]", "values": [{"measurement": "pharmacokinetic parameters (in words)", "setting": "[1]", "value": "good pharmacokinetic parameters"}, {"measurement": "AUC(0-t)", "setting": "[1]", "value": "1000 to 2000", "unit": "ng·h/mL"}, {"measurement": "Cmax", "setting": "[1]", "value": "600 to 900", "unit": "ng/mL"}, {"measurement": "IC50", "setting": "[2]", "value": "100 to 300", "unit": "nM"}, {"measurement": "IC50", "setting": "[3]", "value": "< 100", "unit": "nM"}]}, {"smiles": "Cn1cc(Nc2nccc(C3=C[C@H]4CC[C@@H](C3)N4C(=O)[C@@H]3CC3(F)F)n2)cn1", "note": "[Compound 1-b, ((S)-2,2-difluorocyclopropyl)((1R,5S)-3-(2-((1-methyl-1H-pyrazol-4-yl)amino)pyrimidin-4-yl)-8-azabicyclo[3.2.1]oct-2-en-8-yl)methanone]", "values": [{"measurement": "pharmacokinetic parameters (in words)", "setting": "[1]", "value": "good pharmacokinetic parameters"}, {"measurement": "AUC(0-t)", "setting": "[1]", "value": "> 2000", "unit": "ng·h/mL"}, {"measurement": "Cmax", "setting": "[1]", "value": "> 900", "unit": "ng/mL"}, {"measurement": "IC50", "setting": "[2]", "value": "< 100", "unit": "nM"}, {"measurement": "IC50", "setting": "[3]", "value": "< 100", "unit": "nM"}]}]}
